Square brackets hold non-standard residues; d marks the D form. Ends that are not written are not given here. Dip = N[C@H](C(=O)O)C(c1ccccc1)c1ccccc1
Tested on: A375 cells
Assay: Confocal microscopy, internalization of fluorescence-labeled peptide
Format: cell-based, human
Experimental: The A375 cell line A375 (ECACC, 88113005) is a human malignant melanoma derived from patient material, and was purchased from Public Health England (PHE Culture Collections, Porton Down, Salisbury, UK). Cells were maintained as monolayer cultures in high glucose […] DMEM supplemented with 10% FBS and 1% L-glutamine, but not as antibiotics (complete media). The cell line was grown in a humidified 5% CO2 atmosphere at 37° C., and was regularly tested for the presence of mycoplasma with MycoAlert (Lonza).
Fixed cells, fluorescence-labeled peptide—Subconfluential A375 cells were seeded at 8,000 cells/well as above, and transfected on the second day using the Lipofectamine LTX with Plus transfection reagents (Invitrogen) following the manufacturer's protocol. The mitochondria were labeled using the pDsRed2-Mito, and the nucleus was labeled using the GFP-Histon2B plasmid (Imaging Platform, University of Tromsø). A day after transfection, cells were washed twice with serum-free RPMI, and treated at different concentration and incubation periods with LTX-315 Pacific Blue or LTX-328 Pacific Blue. […] Control cells were treated with unlabeled LTX-315 and also with serum-free RPMI only. After incubation, cells were fixed with 4% paraformaldehyde in PBS, and the wells were covered with Prolong Gold antifade (Invitrogen). Cells were further analyzed by use of a Leica TCS SP5 confocal microscope, with a […] objective. Pacific Blue, GFP and Ds Red were excited using UV, with 488 and 561 lasers, and fluorescence channels were sequentially detected using the following band passes: UV: 420-480 nm (with attenuation), 488: 501-550 nm and 561: 576-676 nm.

Substance: KAQ[Dip]QKQAW-NH2 [LTX-328, reference compound]
- internalization of peptide (3 μM, 60 min): not internalized
- internalization of Pacific Blue-labelled peptide (A375 cells, 3 μM and 1.5 μM): did not demonstrate any internalization

Reference: US20250002854A1, “METHODS OF GENERATING POPULATIONS OF TUMOUR-INFILTRATING T CELLS” (LYTIX BIOPHARMA AS, priority 2016, published 2025)
